In patent US20230248723A1, “PYRROLO[2,3-B]PYRAZINE COMPOUNDS AS CCCDNA INHIBITORS FOR THE TREATMENT OF HEPATITIS B VIRUS (HBV) INFECTION” (Hoffmann-La Roche Inc., priority 2017, published 2023):
Read-outs that look alike come from different tables or passages of the source.

Legend:
[1] = test system: liver-enriched genes (liver signatures); assay: Whole-genome transcriptome microarray on HLC treated with MB-1; format: cell-based, human
Description: FIG. 1: Maturation screen identified a small molecule that enhances maturation of HLC. (A) HLC maturation screening cascade. […] Lane 1-3, MB-1 (5 μM) at 7 d, 24 h, and 2 h, respectively. Lane 4-6, MB-1 (0.5 μM) at 7 d, 24 h, and 2 h, respectively. (C) BioQC liver score analysis of HLC transcriptomes (following treatment with MB-1 for 2 h, 24 h, and 7 day) were compared to those of PHH, HepaRG, and HepG2. (D) Expression of AAT-1a in HLC after 14 day of treatment with MB-1, or 1% DMSO. (E) MB-1-treated HLC support robust HBV infection: HLC (in 96-well plate) were treated with MB-1 (1 μM), or 1% DMSO, for 4 days, then infected with patient-derived HBV (MOI 10, in triplicate). Culture medium was harvested at indicated time points and analyzed for HBsAg.
To fully manifest the potential of HLC as a disease-relevant assay for HBV drug discovery, they have to meet the following criteria: hepatocyte-likeness, scalability, assay robustness, and reproducibility. It is well known that HLC still display immature phenotypes i.e. resemble more fetal than adult, hepatocytes (Baxter et al., 2015; Godoy et al., 2015; Goldring et al., 2017). […]

[2] = test system: albumin (secreted, cellular toxicity marker); assay: Albumin (in vitro cellular tox marker), multiplex assay, PHH; format: cell-based; details: human
Description: Fresh primary human hepatocytes (PXB-PHH) harvested from humanized mice (uPA/SCID mice)—herein called PHH—were obtained from PhoenixBio Co., Ltd (Japan). Cells were seeded on a collagen I-coated plate at the following cell density: 35,000 cells/well (384-well), 70,000 cells/well (96-well), or, 400,000 cells/well (24-well) in modified hepatocyte clonal growth medium (dHCGM). dHCGM is a DMEM medium containing 100 U/ml Penicillin, 100 μg/ml Streptomycin, 20 mM Hopes, 44 mM NaHCO3, 15 μg/ml L-proline, 0.25 μg/ml insulin, 50 nM Dexamethazone, 5 ng/ml EGF, 0.1 mM Asc-2P, 2% DMSO and 10% FBS (Ishida et al., 2015). Cells were cultured at 37° C. incubator in a humidified atmosphere with 5% CO2. Culture medium was replaced 24 h post-plating and every 2 days until harvest.
Following 4 day of maturation with 1 μM MB-1, HLC were incubated with HBV (purified from CHB individuals) at multiplicity of infection (MOI) 10-40 without PEG for 24 hr; virus inoculum was removed the following day. […] Compound treatment in HLC and PHH was started at day 3 post infection. Compound (in powder) was dissolved in DMSO; the final concentration of DMSO added to cells is 1%. Fresh compound was replenished every 2 day until cells were harvested at day 10 (PHH), or day 14 (HLC). Compound effect on HBV and cellular toxicity was measured by multiplex assay (HBsAg, HBeAg, albumin), branched DNA (pgRNA), or digital PCR (cccDNA) and depicted as % of inhibition compared to DMSO control. Graphs were prepared using Spotfire software.
A custom, Luminex-based multiplex assay that simultaneously measured HBeAg, albumin, and HBsAg was developed by Radix BioSolutions (Georgetown, Tex.). This is a sandwich immunoassay; each capture antibody was coupled with xMAP™ Luminex magnetic beads. The dynamic ranges of analyte detection are as follows: HBeAg (1-316 ng/ml), albumin (3.1-10,000 ng/ml), and HBsAg (0.1-100 ng/ml) with coefficient variant (CV) […]. Samples were read on FlexMAP 3D (Luminex) and analyzed by Genedata software.

Row | Structure (SMILES) | number of liver-enriched genes (liver tissue signature) with up-regulated mRNA expression ([1]; Gini index >0.7) | number of up-regulated genes that are highly expressed in the liver ([1]; Gini index >0.8) | IC50 at 7 days ([2]; HepG2.2.15-derived HBV GT D, MOI 40, read-out: In vitro tox albumin IC50 (μM) Median) | IC50 at 7 days ([2]; HepG2.2.15-derived HBV GT D, MOI 125, read-out: In vitro tox albumin IC50 (μM) Median) | IC50 at 7 days ([2]; primary human hepatocytes (PXB-PHH) infected with HBV, patient-derived HBV (GT D), read-out: In vitro tox albumin IC50 (μM) Median) | IC50 at 7 days ([2]; primary human hepatocytes (PXB-PHH) infected with HBV, patient-derived HBV GT A, MOI 40, day 10 pi, read-out: In vitro tox albumin IC50 (μM) Median) | IC50 at 7 days ([2]; primary human hepatocytes (PXB-PHH) infected with HBV, patient-derived HBV GT B, MOI 40, day 10 pi, read-out: In vitro tox albumin IC50 (μM) Median) | IC50 at 7 days ([2]; primary human hepatocytes (PXB-PHH) infected with HBV, patient-derived HBV GT C, MOI 40, day 10 pi, read-out: In vitro tox albumin IC50 (μM) Median) | IC50 at 7 days ([2]; primary human hepatocytes (PXB-PHH) infected with HBV, patient-derived HBV GT D, MOI 40 (Table 6), read-out: In vitro tox albumin IC50 (μM) Median) | IC50 at 7 days ([2]; primary human hepatocytes (PXB-PHH) infected with HBV, patient-derived HBV GT D, MOI 40, day 10 pi (Table 5), read-out: In vitro tox albumin IC50 (μM) Median) | IC50 at 7 days ([2]; primary human hepatocytes (PXB-PHH) infected with HBV, patient-derived HBV GT D, MOI 125, read-out: In vitro tox albumin IC50 (μM) Median)
1 | O=C(NCc1cccc(F)c1)c1cccc2[nH]c(-c3c(NC[C@@H](O)c4ccccc4)cc[nH]c3=O)nc12 [MB-1] | ~237 | 137 |  |  |  |  |  |  |  |  | 
2 | O=C(NC(CO)CO)c1c[nH]c2ncc(C3CC3)nc12 [compound 7] |  |  | 21.1 µM | 20.2 µM | 20.9 µM | 20.3 µM | 19.2 µM | 23.2 µM | 23.7 µM | 23.7 µM | 20.5 µM
